Where two headings read alike, the source gives them in different places.

In general, EC50 refers to the concentration that produces a half-maximal response.

The test system of assay [1] is CRMM1 conjunctival melanoma cell line. As to the kind of experiment: SRB cell viability assay, CRMM1. In kind it is cell-based, Human. On the procedure:
TLD1433 is known to generate reactive oxygen species (ROS) with high quantum efficacy in many cancer cell lines. However, there is no report of the in vitro toxicity of this compound in eye melanoma (UM) cell lines. We determined the cell viability of three conjunctival melanoma cell lines (CRMM1, CRMM2 and CM2005.1), and three uveal melanoma cell lines (OMM1, OMM2.5, MEL270) in the presence of TLD1433, both in the dark or under green light irradiation (21 mW/cm^2, 19 J/cm^2, 520 nm, 15 min), and compared this viability to epidermoid carcinoma A431 and cutaneous melanoma A375 cell lines under the same conditions. The protocol used was based on previous work from the Bonnet group, and differed slightly from recommendations from McFarland et al.. […] The effective concentration (EC50) values, i.e., the concentration required to reduce cell viability by 50% compared to untreated wells, were assessed by fitting the dose-response curves with a Hill equation. The phototoxicity index (PI), defined as the ratio of the dark EC50 to the light EC50, was also calculated and represents the amplification of TLD1433 activity with a light trigger. […]
(§1) Figure 2 Cell viability after TLD1433 treatment of eight tumour cell lines (CRMM1, CRMM2, CM2005.1, OMM1, OMM2.5, MEL270, A431, A375). […] The absorbance of Sulforhodamine B in solution was measured at 520 nm. […]
At day 0, cells were detached using 1mL of trypsin, resuspended in 4 mL of media and transferred to a 15 mL corning falcon tube. Cells were counted using trypan blue and BioRad® TC20™ automated cell counter (Figure 11). Dilutions of 6000 (CRMM1), 6000 (CRMM2), 8000 (CM2005.1), 6000 (OMM1), 6000 (OMM2.5), 6000 (MEL270) 8000 (A431), and 4000 (A375) cells/well were calculated from each cell suspension at a final volume of 6 mL using the following formula: Vc=(Vt×10C)/Lc where Vt = total volume of solution, C = number of cells per well/per 100 μL and Lc = live cells count (cells/mL). […] Next day, the dye was dissolved using Tri-base (0.25%) and absorbance of SRB at 510 nm was recorded from each well using a Tecan plate reader. […]

The subject of assay [2] is CRMM2 engrafted cells in zebrafish orthotopic model. As to the kind of experiment: In situ TUNEL assay, CRMM2 orthotopic zebrafish model. In kind it is in vivo, Zebrafish (Danio rerio). The following applies: RO 2.3 mM. How it is done: In situ TUNEL assay on fixed embryos was used to detect TLD1433 induced apoptosis in zebrafish CRMM1 and CRMM2 orthotopic tumour models at 4 dpi after light activation of 2.3 mM TLD1433, administrated by retro orbital injection. The DNA strand breaks in apoptotic tumour cells were stained with fluorescein and visualized as a green signal.
Figure 10 TUNEL assay of in CRMM1 and CRMM2 orthotopic model after RO of TLD1433. Red fluorescent CRMM1 (A) and CRMM2 (B) cells were injected at 2dpf behind the ZF eye and divided into four groups for drug treatment. RO administration of vehicle control and TLD1433 was performed as described in Figure 9C,E. After dark or light exposure (21 mW/cm^2, 114 J.cm^−2, 520 nm) embryos were fixed and TUNEL staining was performed. Representative images of embryos are shown in this figure. (A,B) In TLD1433 light groups nuclear DNA fragmentation by nucleases is detected by co-localization of green (DNA fragments) and red signal of engrafted CM cells, depicted as yellow signal and marked by white arrows. In control dark, control light, TLD1433 dark, there are no positive green apoptotic tumour cells observed. […] Experiment was performed 3 times with a group size of 10 embryos.
The zebrafish larvae were fixed overnight with 4% PFA at 4 °C. Embryos were washed in PBST for 5 min and dehydrated by a graded methanol series until reaching 100% methanol. […]

Assay [3] deals with A375 cutaneous melanoma cell line. Nature of the assay: SRB cell viability assay, A375. In kind it is cell-based, Human. On the procedure:
TLD1433 is known to generate reactive oxygen species (ROS) with high quantum efficacy in many cancer cell lines. However, there is no report of the in vitro toxicity of this compound in eye melanoma (UM) cell lines. We determined the cell viability of three conjunctival melanoma cell lines (CRMM1, CRMM2 and CM2005.1), and three uveal melanoma cell lines (OMM1, OMM2.5, MEL270) in the presence of TLD1433, both in the dark or under green light irradiation (21 mW/cm^2, 19 J/cm^2, 520 nm, 15 min), and compared this viability to epidermoid carcinoma A431 and cutaneous melanoma A375 cell lines under the same conditions. […] The phototoxicity index (PI), defined as the ratio of the dark EC50 to the light EC50, was also calculated and represents the amplification of TLD1433 activity with a light trigger. […]
as §1
At day 0, cells were detached using 1mL of trypsin, resuspended in 4 mL of media and transferred to a 15 mL corning falcon tube. Cells were counted using trypan blue and BioRad® TC20™ automated cell counter (Figure 11). […] Next day, the dye was dissolved using Tri-base (0.25%) and absorbance of SRB at 510 nm was recorded from each well using a Tecan plate reader. […]

On to `Cc1ccnc(-c2cc(C)ccn2)c1.Cc1ccnc(-c2cc(C)ccn2)c1.[Cl-].[Cl-].[Ru+2].c1csc(-c2ccc(-c3ccc(-c4nc5c6cccnc6c6ncccc6c5[nH]4)s3)s2)c1` [TLD1433], for which the EC50 in assay [1] (CRMM1, dark, 24 h treatment, SRB, read-out: EC50, dark) was 840 nM; in assay [1] (CRMM1, green light 520 nm, 15 min, 21 mW/cm^2, 19 J.cm^−2, DLI 24 h, read-out: EC50,light), 5.9 nM; in assay [3] (A375, dark, 24 h treatment, SRB, read-out: EC50, dark) it was greater than 5000 nM; in assay [3] (A375, green light 520 nm, 15 min, 21 mW/cm^2, 19 J.cm^−2, DLI 24 h, read-out: EC50,light), 50 nM. Further, the “PI (photo index)” value in assay [1] (CRMM1, ratio of dark and light EC50, 19 J.cm^−2 green light) came out at 140. The “TUNEL apoptosis of engrafted cells (in words)” value in assay [2] (dark, 4 dpi) is “no positive green signal detected”; in assay [2] (light 114 J.cm^−2, 4 dpi), “induced CRMM1 and CRMM2 cell apoptosis”.

Source of the values: publication PMC7139549, “TLD1433 Photosensitizer Inhibits Conjunctival Melanoma Cells in Zebrafish Ectopic and Orthotopic Tumour Models” (Cancers, 2020).
